What follows are molecules tested against Phosphatidylinositol 3-kinase catalytic subunit type 3 (Homo sapiens, UniProt Q8NEB9) (assay: Kinase Glo Luminescent Kinase Assay: PI 3-Kinase Alpha (A), Pb 3-Kinase Beta (B), Vps34 (C), PI 4-Kinase Beta (D):The luminescence-based ATP detection reagent KinaseGlo was obtained from Promega, (Cat. No. V6714, Lot No. 236161) through Catalys, Wallisellen, Switzerland. L-alpha-phosphatidylinositol (PI, liver, bovine) was obtained from Avanti Polar Lipid (Cat. No. 840042C, Lot#LPI-274), Phosphatidylinositol-4,5-bisphosphate (PIP(4,5)2) was also obtained from Avanti Polar Lipid (Cat. No. 840046X). L-α-Phosphatidylserine (PS) was obtained from Avanti Polar Lipid (Cat. No. 840032C), n-Octylglucoside from Avanti Polar Lipid (Cat. No. 10634425001). Luminescence is a well established readout to determine ATP concentrations and can thus be used to follow the activity of many kinases regardless of their substrate. The Kinase Glo Luminescent Kinase Assay (Promega, Madison/WI, USA) is a homogeneous HTS method of measuring kinase activity by quantifying the amount of ATP remaining in solution following a kinase reaction.).
Phosphatidylinositol 3-kinase catalytic subunit type 3, sequence (Q8NEB9 whole entry): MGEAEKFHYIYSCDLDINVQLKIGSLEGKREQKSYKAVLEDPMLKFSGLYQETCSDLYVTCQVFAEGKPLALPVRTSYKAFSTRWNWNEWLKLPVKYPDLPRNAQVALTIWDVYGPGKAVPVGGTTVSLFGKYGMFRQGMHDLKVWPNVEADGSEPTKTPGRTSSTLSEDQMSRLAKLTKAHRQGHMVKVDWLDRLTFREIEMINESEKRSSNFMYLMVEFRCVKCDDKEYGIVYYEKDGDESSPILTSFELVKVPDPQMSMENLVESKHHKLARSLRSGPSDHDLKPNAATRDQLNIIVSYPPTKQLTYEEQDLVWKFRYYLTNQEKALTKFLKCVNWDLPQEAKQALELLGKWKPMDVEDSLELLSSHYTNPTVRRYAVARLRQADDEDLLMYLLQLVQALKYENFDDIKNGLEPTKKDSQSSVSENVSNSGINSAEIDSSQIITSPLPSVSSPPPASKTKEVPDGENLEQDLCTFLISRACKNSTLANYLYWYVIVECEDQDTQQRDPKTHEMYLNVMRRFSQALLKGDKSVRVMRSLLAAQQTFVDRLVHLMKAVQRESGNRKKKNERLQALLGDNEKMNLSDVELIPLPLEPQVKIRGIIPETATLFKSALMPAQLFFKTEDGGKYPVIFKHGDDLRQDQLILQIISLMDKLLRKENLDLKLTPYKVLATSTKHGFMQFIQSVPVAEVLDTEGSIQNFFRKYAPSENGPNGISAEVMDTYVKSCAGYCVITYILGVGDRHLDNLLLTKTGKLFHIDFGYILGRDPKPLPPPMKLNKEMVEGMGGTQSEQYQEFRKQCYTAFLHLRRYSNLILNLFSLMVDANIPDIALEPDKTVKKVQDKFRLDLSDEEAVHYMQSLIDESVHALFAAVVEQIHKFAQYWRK

Row | IC50 [µM] | Structure (SMILES)
1 | 2.45 | Cc1cc(-c2cncc(-c3cc(S(=O)(=O)NC[C@H]4C[C@@H](O)C4)ccc3C)n2)n(C)n1
2 | 8.6 | Cc1ccc(S(=O)(=O)N[C@H]2CC[C@H](O)CC2)cc1-c1cncc(-c2csc(CN3CCOCC3)c2)n1
3 | 4.4 | Cc1ccc(S(=O)(=O)NC[C@H]2C[C@@H](O)C2)cc1-c1cncc(-c2cn(C)nc2C)n1
4 | 9.4 | Cc1ccc(S(=O)(=O)NC2CC3(CC(O)C3)C2)cc1-c1cncc(-c2cn(C)nc2C)n1 (centres undefined)
